Results as given in patent US9469650B2, “Melampomagnolide B derivatives” (BOARD OF TRUSTEES OF THE UNIVERSITY OF ARKANSAS, priority 2013, dated 2016).
Read-outs that look alike come from different tables or passages of the source.

Columns and labels:
UO-31 [1] = test system: UO-31
K-562 = experiment: panel of 60 human tumor cell lines, growth inhibition (Leukemia); details: K-562
M14 = experiment: panel of 60 human tumor cell lines, growth inhibition (Melanoma); details: M14
SK-MEL-2 = experiment: as above; details: SK-MEL-2
UACC-62 = experiment: as above; details: UACC-62
SNB-75 = experiment: panel of 60 human tumor cell lines, growth inhibition (CNS Cancer); details: SNB-75
HCT-116 = experiment: panel of 60 human tumor cell lines, growth inhibition (Colon Cancer); details: HCT-116
HCT-15 = experiment: as above; details: HCT-15
786-0 = experiment: panel of 60 human tumor cell lines, growth inhibition (Renal Cancer); details: 786-0
RXF 393 = experiment: as above; details: RXF 393
UO-31 [2] = experiment: as above; details: UO-31
MCF7 = experiment: panel of 60 human tumor cell lines, growth inhibition (Breast Cancer); details: MCF7
BT-549 = experiment: as above; details: BT-549
OVCAR-3 = experiment: panel of 60 human tumor cell lines, growth inhibition (Ovarian Cancer); details: OVCAR-3
SK-OV-3 = experiment: as above; details: SK-OV-3
DU-145 = experiment: panel of 60 human tumor cell lines, growth inhibition (Prostate Cancer); details: DU-145
NCI-H226 = experiment: panel of 60 human tumor cell lines, growth inhibition (Non-Small Cell Lung Cancer); details: NCI-H226
NCI-H322M = experiment: as above

C=C1C(=O)O[C@H]2[C@H]1CC/C(COC(=O)N1CCC(F)(F)CC1)=C\CC[C@@]1(C)O[C@@H]21 [JVM 2-66]
GI50 (HL-60(TB)): 2040 nM
TGI (HL-60(TB)): 7.15E−6
Percent Growth (HL-60(TB); Log10 Concentration −4.0): −49%
Percent Growth (HL-60(TB); Log10 Concentration −5.0): −13%
Percent Growth (HL-60(TB); Log10 Concentration −6.0): 79%
Percent Growth (HL-60(TB); Log10 Concentration −7.0): 84%
Percent Growth (HL-60(TB); Log10 Concentration −8.0): 97%
CC50 (HL-60(TB); read-out: LC50): > 100000 nM
CC50 (NCI/ADR-RES): 69500 nM
CC50 (UO-31 [1]): 22200 nM
GI50 (K-562): 3450 nM
TGI (K-562): 3.61E−5
Percent Growth (K-562; Log10 Concentration −4.0): −10%
Percent Growth (K-562; Log10 Concentration −5.0): 13%
Percent Growth (K-562; Log10 Concentration −6.0): 93%
Percent Growth (K-562; Log10 Concentration −7.0): 95%
Percent Growth (K-562; Log10 Concentration −8.0): 104%
Percent Growth (M14; Log10 Concentration −4.0): −85%
Percent Growth (M14; Log10 Concentration −5.0): 8%
Percent Growth (M14; Log10 Concentration −6.0): 85%
Percent Growth (M14; Log10 Concentration −7.0): 87%
Percent Growth (M14; Log10 Concentration −8.0): 96%
GI50 (SK-MEL-2): 2930 nM
TGI (SK-MEL-2): 8.95E−6
Percent Growth (SK-MEL-2; Log10 Concentration −4.0): −84%
Percent Growth (SK-MEL-2; Log10 Concentration −5.0): −5%
Percent Growth (SK-MEL-2; Log10 Concentration −6.0): 98%
Percent Growth (SK-MEL-2; Log10 Concentration −7.0): 99%
Percent Growth (SK-MEL-2; Log10 Concentration −8.0): 100%
GI50 (UACC-62): 2110 nM
TGI (UACC-62): 6.00E−6
Percent Growth (UACC-62; Log10 Concentration −4.0): −94%
Percent Growth (UACC-62; Log10 Concentration −5.0): −24%
Percent Growth (UACC-62; Log10 Concentration −6.0): 86%
Percent Growth (UACC-62; Log10 Concentration −7.0): 94%
Percent Growth (UACC-62; Log10 Concentration −8.0): 97%
GI50 (SNB-75): 6130 nM
TGI (SNB-75): 2.03E−5
Percent Growth (SNB-75; Log10 Concentration −4.0): −95%
Percent Growth (SNB-75; Log10 Concentration −5.0): 42%
Percent Growth (SNB-75; Log10 Concentration −6.0): 79%
Percent Growth (SNB-75; Log10 Concentration −7.0): 75%
Percent Growth (SNB-75; Log10 Concentration −8.0): 87%
GI50 (HCT-116): 1410 nM
TGI (HCT-116): 3.30E−6
Percent Growth (HCT-116; Log10 Concentration −4.0): −100%
Percent Growth (HCT-116; Log10 Concentration −5.0): −65%
Percent Growth (HCT-116; Log10 Concentration −6.0): 70%
Percent Growth (HCT-116; Log10 Concentration −7.0): 93%
Percent Growth (HCT-116; Log10 Concentration −8.0): 99%
GI50 (HCT-15): 1470 nM
TGI (HCT-15): 3.84E−6
Percent Growth (HCT-15; Log10 Concentration −4.0): −86%
Percent Growth (HCT-15; Log10 Concentration −5.0): −50%
Percent Growth (HCT-15; Log10 Concentration −6.0): 70%
Percent Growth (HCT-15; Log10 Concentration −7.0): 94%
Percent Growth (HCT-15; Log10 Concentration −8.0): 100%
GI50 (786-0): 3670 nM
TGI (786-0): 1.50E−5
Percent Growth (786-0; Log10 Concentration −4.0): −81%
Percent Growth (786-0; Log10 Concentration −5.0): 17%
Percent Growth (786-0; Log10 Concentration −6.0): 93%
Percent Growth (786-0; Log10 Concentration −7.0): 91%
Percent Growth (786-0; Log10 Concentration −8.0): 97%
GI50 (RXF 393): 1200 nM
TGI (RXF 393): 2.53E−6
Percent Growth (RXF 393; Log10 Concentration −4.0): −92%
Percent Growth (RXF 393; Log10 Concentration −5.0): −92%
Percent Growth (RXF 393; Log10 Concentration −6.0): 62%
Percent Growth (RXF 393; Log10 Concentration −7.0): 95%
Percent Growth (RXF 393; Log10 Concentration −8.0): 100%
GI50 (UO-31 [2]): 1990 nM
TGI (UO-31 [2]): 5.44E−6
Percent Growth (UO-31 [2]; Log10 Concentration −4.0): −88%
Percent Growth (UO-31 [2]; Log10 Concentration −5.0): −30%
Percent Growth (UO-31 [2]; Log10 Concentration −6.0): 84%
Percent Growth (UO-31 [2]; Log10 Concentration −7.0): 86%
Percent Growth (UO-31 [2]; Log10 Concentration −8.0): 80%
GI50 (MCF7): 1620 nM
TGI (MCF7): 4.91E−6
Percent Growth (MCF7; Log10 Concentration −4.0): −75%
Percent Growth (MCF7; Log10 Concentration −5.0): −32%
Percent Growth (MCF7; Log10 Concentration −6.0): 72%
Percent Growth (MCF7; Log10 Concentration −7.0): 83%
Percent Growth (MCF7; Log10 Concentration −8.0): 89%
GI50 (BT-549): 2690 nM
TGI (BT-549): 8.54E−6
Percent Growth (BT-549; Log10 Concentration −4.0): −99%
Percent Growth (BT-549; Log10 Concentration −5.0): −7%
Percent Growth (BT-549; Log10 Concentration −6.0): 93%
Percent Growth (BT-549; Log10 Concentration −7.0): 98%
Percent Growth (BT-549; Log10 Concentration −8.0): 100%
GI50 (OVCAR-3): 1690 nM
TGI (OVCAR-3): 4.03E−6
Percent Growth (OVCAR-3; Log10 Concentration −4.0): −99%
Percent Growth (OVCAR-3; Log10 Concentration −5.0): −52%
Percent Growth (OVCAR-3; Log10 Concentration −6.0): 80%
Percent Growth (OVCAR-3; Log10 Concentration −7.0): 95%
Percent Growth (OVCAR-3; Log10 Concentration −8.0): 101%
GI50 (SK-OV-3): 16200 nM
TGI (SK-OV-3): 3.22E−5
Percent Growth (SK-OV-3; Log10 Concentration −4.0): −83%
Percent Growth (SK-OV-3; Log10 Concentration −5.0): 85%
Percent Growth (SK-OV-3; Log10 Concentration −6.0): 100%
Percent Growth (SK-OV-3; Log10 Concentration −7.0): 92%
Percent Growth (SK-OV-3; Log10 Concentration −8.0): 100%
GI50 (DU-145): 2440 nM
TGI (DU-145): 8.35E−6
Percent Growth (DU-145; Log10 Concentration −4.0): −100%
Percent Growth (DU-145; Log10 Concentration −5.0): −7%
Percent Growth (DU-145; Log10 Concentration −6.0): 86%
Percent Growth (DU-145; Log10 Concentration −7.0): 100%
Percent Growth (DU-145; Log10 Concentration −8.0): 102%
TGI (NCI-H226): 4.35E−6
Percent Growth (NCI-H226; Log10 Concentration −4.0): −71%
Percent Growth (NCI-H226; Log10 Concentration −5.0): −49%
Percent Growth (NCI-H226; Log10 Concentration −6.0): 87%
Percent Growth (NCI-H226; Log10 Concentration −7.0): 90%
Percent Growth (NCI-H226; Log10 Concentration −8.0): 102%
GI50 (NCI-H322M): 13000 nM
TGI (NCI-H322M): 2.66E−5
Percent Growth (NCI-H322M; Log10 Concentration −4.0): −92%
Percent Growth (NCI-H322M; Log10 Concentration −5.0): 68%
Percent Growth (NCI-H322M; Log10 Concentration −6.0): 102%
Percent Growth (NCI-H322M; Log10 Concentration −7.0): 99%
Percent Growth (NCI-H322M; Log10 Concentration −8.0): 96%
